Assay results from article PMC9250534, “Synthesis and direct assay of large macrocycle diversities by combinatorial late-stage modification at picomole scale” (Nature Communications, 2022).
Numbered stars: 1 amine (or outer) side, 2 acyl side, 3 side chain; on linkers, the order of the positions; unused ones are H or OH. Bridge positions count the residues as written; N and C are the ends. Square brackets hold non-standard residues; d marks the D form. Peptide text beside a SMILES is read from it. * marks the point of attachment. ξ: configuration not given here. Pyrazinoyl(5-oxo-4H) = O=C(c1c[nH]c(=O)cn1)*; ξNaproxenoyl = COc1ccc2cc(C(C)C(=O)*)ccc2c1; 1,2,3Thiadiazole5CO(4-Me) = Cc1nnsc1C(=O)*; Isoorotoyl = O=C(c1c[nH]c(=O)[nH]c1=O)*; Nicotinoyl(6-OMe) = COc1ccc(C(=O)*)cn1; 2Thenoyl(5-Cl) = O=C(c1ccc(Cl)s1)*; Pyrazinecarbonyl = O=C(c1cnccn1)*; Phenoxyacetyl = O=C(COc1ccccc1)*; X14 = O=C(C1(c2ccccc2)CCCCC1)*; Cysteamide = C(CS[*:3])N[*:1]; X3 = O=C(Cc1c[nH]c2ccccc12)*; Isovaleryl = CC(C)CC(=O)*; Orn = NCCC[C@H](N)C(=O)O; Dap = NC[CH](N)C(=O)O; Bz = O=C(c1ccccc1)*; Mpa = O=C(O)CCS

target: T1, thrombin (Homo sapiens, UniProt P00734); test: Thrombin inhibition screen of crude macrocycle reactions (residual thrombin activity, fluorogenic substrate Z-Gly-Gly-Arg-AMC); type: biochemical; conditions: 10 µM macrocycle concentration; crude reactions, Library 1a-l; scaffold AA1-AA2-AA3 combined with 1-16 or '-'
T1 construct: consists of two polypeptide chains of 36 (light chain) and 259 amino acid
Description: As a proof-of-concept, we screened the macrocycle library for inhibitors against thrombin, which is the central blood coagulation protease and an important therapeutic target. We conducted the screen for thrombin-inhibiting macrocycles in 384-well reaction plates. Briefly, each well contained a unique macrocycle (10 μM), 5 μL of thrombin (2 nM final conc.), and subsequently, 5 µL of a fluorogenic substrate to measure the residual thrombin activity and the extent of protease inhibition.
The assays were performed in 384-well plates using Tris buffer at pH 7.4 (100 mM Tris-Cl, 150 mM NaCl, 10 mM MgCl2, 1 mM CaCl2, 0.1% w/v BSA, 0.01% v/v Triton-X100, and 0.6% v/v DMSO) using thrombin at a final concentration of 2 nM and the fluorogenic substrate Z-Gly-Gly-Arg-AMC at a final concentration of 50 μM. Thrombin (5 μL, 6 nM) in the Tris-Cl buffer described above was added to each peptide using a BioTek MultiFlo microplate dispenser, and incubated for 10 min at room temperature. […] Data was collected and exported using the Tecan Infinite M200 Pro instrument software. […] For the negative controls (20 wells containing DMSO but no macrocycle), an average slope was calculated. The percent of thrombin inhibition was calculated by dividing the slopes and multiplying the results by 100.

Row | percent residual thrombin activity [%] | Compound
1 | 106.242 | NC(=O)CC[C@@H]1NC(=O)[C@H](CCCCNC(=O)Cc2c[nH]c3ccccc23)NC(=O)[C@@H]2CCCN2C(=O)CCSSCCNC1=O [B1-D1-Q/12] ([Mpa]PK(X3)Q-Cysteamide; disulfide 1-C)
2 | 113.502 | Cc1nnsc1C(=O)NCCCC[C@@H]1NC(=O)[C@@H]2CCCN2C(=O)CCSSCCNC(=O)[C@H](CCC(N)=O)NC1=O [B1-D1-Q/15] ([Mpa]PK(1,2,3Thiadiazole5CO(4-Me))Q-Cysteamide; disulfide 1-C)
3 | 107.218 | CC(C)[C@H]1NC(=O)[C@H](CCCCNC(=O)c2ccccc2)NC(=O)[C@@H]2CCCN2C(=O)CCSSCCNC1=O [B1-D1-v/1] ([Mpa]PK(Bz)[dV]-Cysteamide; disulfide 1-C)
4 | 115.134 | CC(C)C1NC(=O)C(CCCCNC(=O)c2cnccn2)NC(=O)C2CCCN2C(=O)CCSSCCNC1=O (stereo not shown) [B1-D1-v/2] ([Mpa]PK(Pyrazinecarbonyl)V-Cysteamide; disulfide 1-C; configuration not given here)
5 | 112.751 | CC(C)CC(=O)NCCCC[C@@H]1NC(=O)[C@@H]2CCCN2C(=O)CCSSCCNC(=O)[C@@H](C(C)C)NC1=O [B1-D1-v/8] ([Mpa]PK(Isovaleryl)[dV]-Cysteamide; disulfide 1-C)
6 | 111.698 | CC(C)[C@H]1NC(=O)[C@H](CCCCNC(=O)c2c[nH]c(=O)cn2)NC(=O)[C@@H]2CCCN2C(=O)CCSSCCNC1=O [B1-D1-v/9] ([Mpa]PK(Pyrazinoyl(5-oxo-4H))[dV]-Cysteamide; disulfide 1-C)
7 | 107.398 | COc1ccc(C(=O)NCCCC[C@@H]2NC(=O)[C@@H]3CCCN3C(=O)CCSSCCNC(=O)[C@@H](C(C)C)NC2=O)cn1 [B1-D1-v/10] ([Mpa]PK(Nicotinoyl(6-OMe))[dV]-Cysteamide; disulfide 1-C)
8 | 123.844 | CC(C)[C@H]1NC(=O)[C@H](CCCCNC(=O)COc2ccccc2)NC(=O)[C@@H]2CCCN2C(=O)CCSSCCNC1=O [B1-D1-v/13] ([Mpa]PK(Phenoxyacetyl)[dV]-Cysteamide; disulfide 1-C)
9 | 114.269 | CC(C)[C@H]1NC(=O)[C@H](CCCCN)NC(=O)[C@@H]2CCCN2C(=O)CCSSCCNC1=O [B1-D1-v/-] ([Mpa]PK[dV]-Cysteamide; disulfide 1-C)
10 | 105.697 | O=C(NCCCC[C@@H]1NC(=O)[C@@H]2CCCN2C(=O)CCSSCCNC(=O)[C@@H](Cc2ccc(O)cc2)NC1=O)c1ccccc1 [B1-D1-y/1] ([Mpa]PK(Bz)[dY]-Cysteamide; disulfide 1-C)
11 | 107.785 | O=C(NCCCC[C@@H]1NC(=O)[C@@H]2CCCN2C(=O)CCSSCCNC(=O)[C@@H](Cc2ccc(O)cc2)NC1=O)c1c[nH]c(=O)cn1 [B1-D1-y/9] ([Mpa]PK(Pyrazinoyl(5-oxo-4H))[dY]-Cysteamide; disulfide 1-C)
12 | 109.958 | COc1ccc(C(=O)NCCCC[C@@H]2NC(=O)[C@@H]3CCCN3C(=O)CCSSCCNC(=O)[C@@H](Cc3ccc(O)cc3)NC2=O)cn1 [B1-D1-y/10] ([Mpa]PK(Nicotinoyl(6-OMe))[dY]-Cysteamide; disulfide 1-C)
13 | 110.064 | NC(=O)CC[C@@H]1NC(=O)[C@@H]2CCCN2C(=O)CCSSCCNC(=O)[C@H](CCCNC(=O)c2c[nH]c(=O)[nH]c2=O)NC1=O [B1-Q-D2/11] ([Mpa]PQ[Orn](Isoorotoyl)-Cysteamide; disulfide 1-C)
14 | 104.653 | NC(=O)CC[C@@H]1NC(=O)[C@@H]2CCCN2C(=O)CCSSCCNC(=O)[C@H](CCCNC(=O)Cc2c[nH]c3ccccc23)NC1=O [B1-Q-D2/12] ([Mpa]PQ[Orn](X3)-Cysteamide; disulfide 1-C)
15 | 109.462 | O=C(NCCC[C@@H]1NC(=O)[C@H](CO)NC(=O)[C@@H]2CCCN2C(=O)CCSSCCNC1=O)c1ccccc1 [B1-S-D2/1] ([Mpa]PS[Orn](Bz)-Cysteamide; disulfide 1-C)
16 | 106.543 | CC(C)CC(=O)NCCC[C@@H]1NC(=O)[C@H](CO)NC(=O)[C@@H]2CCCN2C(=O)CCSSCCNC1=O [B1-S-D2/8] ([Mpa]PS[Orn](Isovaleryl)-Cysteamide; disulfide 1-C)
17 | 112.339 | O=C(NCCC[C@@H]1NC(=O)[C@H](CO)NC(=O)[C@@H]2CCCN2C(=O)CCSSCCNC1=O)c1c[nH]c(=O)[nH]c1=O [B1-S-D2/11] ([Mpa]PS[Orn](Isoorotoyl)-Cysteamide; disulfide 1-C)
18 | 96.3876 | O=C(NCCC[C@@H]1NC(=O)[C@H](CO)NC(=O)[C@@H]2CCCN2C(=O)CCSSCCNC1=O)c1ccc(Cl)s1 [B1-S-D2/14] ([Mpa]PS[Orn](2Thenoyl(5-Cl))-Cysteamide; disulfide 1-C)
19 | 110.704 | COc1ccc(C(=O)NCCCC[C@@H]2NC(=O)[C@@H](CO)NC(=O)[C@@H]3CCCN3C(=O)CCSSCCNC2=O)cn1 [B1-s-D1/10] ([Mpa]P[dS]K(Nicotinoyl(6-OMe))-Cysteamide; disulfide 1-C)
20 | 111.278 | O=C(Cc1c[nH]c2ccccc12)NCCCC[C@@H]1NC(=O)[C@@H](CO)NC(=O)[C@@H]2CCCN2C(=O)CCSSCCNC1=O [B1-s-D1/12] ([Mpa]P[dS]K(X3)-Cysteamide; disulfide 1-C)
21 | 113.487 | NCCCC[C@@H]1NC(=O)[C@@H](CO)NC(=O)[C@@H]2CCCN2C(=O)CCSSCCNC1=O [B1-s-D1/-] ([Mpa]P[dS]K-Cysteamide; disulfide 1-C)
22 | 108.892 | O=C(NCCC[C@@H]1NC(=O)[C@H](CO)NC(=O)[C@@H]2CCCN2C(=O)CCSSCCNC1=O)c1ccccc1 [B1-s-D2/1] ([Mpa]PS[Orn](Bz)-Cysteamide; disulfide 1-C)
23 | 104.868 | CC(C)CC(=O)NCCC[C@@H]1NC(=O)[C@H](CO)NC(=O)[C@@H]2CCCN2C(=O)CCSSCCNC1=O [B1-s-D2/8] ([Mpa]PS[Orn](Isovaleryl)-Cysteamide; disulfide 1-C)
24 | 111.409 | O=C(NCCC[C@@H]1NC(=O)[C@H](CO)NC(=O)[C@@H]2CCCN2C(=O)CCSSCCNC1=O)c1c[nH]c(=O)[nH]c1=O [B1-s-D2/11] ([Mpa]PS[Orn](Isoorotoyl)-Cysteamide; disulfide 1-C)
25 | 95.3682 | O=C(NCCC[C@@H]1NC(=O)[C@H](CO)NC(=O)[C@@H]2CCCN2C(=O)CCSSCCNC1=O)c1ccc(Cl)s1 [B1-s-D2/14] ([Mpa]PS[Orn](2Thenoyl(5-Cl))-Cysteamide; disulfide 1-C)

target: MDM2 (Homo sapiens, UniProt Q00987); test: MDM2 binding screen: displacement of fluorescent p53 peptide probe FP53 (fluorescence polarization); conditions: 10 µM macrocycle concentration; crude acylated macrocycle (scaffold Mpa-AA1-AA2-AA3 x carboxylic acid); p53-based fluorescent peptide, human MDM2
How it was run: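 Macrocycle reaction products at a final 10 µM were tested for displacement of a p53-based fluorescent peptide from human MDM2. Fluorescence anisotropy (ex 485/em 535 nm) was read once per macrocycle at 25 °C.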

Chain of MDM2 (Q00987 whole entry, the tested form may be a part): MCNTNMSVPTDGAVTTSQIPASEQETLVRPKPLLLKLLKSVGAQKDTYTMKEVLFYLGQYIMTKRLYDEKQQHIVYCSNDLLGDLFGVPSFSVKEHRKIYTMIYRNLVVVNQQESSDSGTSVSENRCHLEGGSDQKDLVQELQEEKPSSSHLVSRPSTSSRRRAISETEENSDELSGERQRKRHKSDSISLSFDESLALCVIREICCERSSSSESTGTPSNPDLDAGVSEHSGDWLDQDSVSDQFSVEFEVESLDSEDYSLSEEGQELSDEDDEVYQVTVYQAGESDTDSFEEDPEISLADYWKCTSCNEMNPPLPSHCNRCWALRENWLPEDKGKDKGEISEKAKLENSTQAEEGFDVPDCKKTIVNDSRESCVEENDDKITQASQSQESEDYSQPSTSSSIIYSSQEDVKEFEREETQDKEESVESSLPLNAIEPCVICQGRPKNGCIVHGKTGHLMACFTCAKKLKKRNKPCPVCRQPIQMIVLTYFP

Row | fraction fluorescent probe displaced | Compound
26 | 0.005277 | COc1ccc2cc(C(C)C(=O)NCC3NC(=O)C4CCCN4C(=O)CCSSCCNC(=O)C(Cc4c[nH]c5ccccc45)NC3=O)ccc2c1 (stereo not shown) [X-B1-D3-W + A97] ([Mpa]P[Dap](ξNaproxenoyl)W-Cysteamide; disulfide 1-C; configuration not given here)
27 | 0.6683 | O=C1NCCSSCCC(=O)N2CCC[C@H]2C(=O)N[C@@H](CNC(=O)C2(c3ccccc3)CCCCC2)C(=O)N[C@H]1Cc1c[nH]c2ccccc12 [X-B1-D3-W + A98] ([Mpa]P[Dap](X14)W-Cysteamide; disulfide 1-C)
28 | 0.1075 | NC[C@@H]1NC(=O)[C@@H]2CCCN2C(=O)CCSSCCNC(=O)[C@H](Cc2c[nH]c3ccccc23)NC1=O [X-B1-D3-W + No Acid] ([Mpa]P[Dap]W-Cysteamide; disulfide 1-C)
